From patent US12280046B2, “Melanocortin subtype-2 receptor (MC2R) antagonist for the treatment of disease” (Crinetics Pharmaceuticals, Inc., priority 2021, dated 2025)

Legend:
MC3R = target: T1, MC3R (Homo sapiens, UniProt P41968); experiment: Commercially available MC3R membrane binding assay; conditions: greater than highest concentration tested
T1 construct: purchased
Protocol: The selectivity over other human MCR subtypes was evaluated using commercially available MC1R, MC3R, MC4R, and MCSR membrane binding assays. The half maximal inhibitory concentration in the binding assays (IC50) were determined to be greater than the highest concentration tested, or >10,000 nM, >1000 nM, >10,000 nM and >1000 nM for MC1R, MC3R, MC4R and MCSR, respectively. Compound 1 is >2900-fold selective for MC2R versus the other human MCRs.

[1] = system: 87 targets including G-protein coupled receptors, nuclear receptors, other cell surface receptors, ion channels, enzymes, and transporters; experiment: Eurofins Panlabs SafetyScreen off-target selectivity panel; conditions: single concentration 10 μM
Protocol: (§1) Compound 1 was tested at Eurofins Panlabs Discovery Services Taiwan, Ltd. for evaluation in their SafetyScreen™ panel of assays. This included selectivity assays at 87 targets including G-protein coupled receptors, nuclear receptors, other cell surface receptors, ion channels, enzymes, and transporters.

[2] = system: serotonin 5-hydroxytryptamine 1B receptor (5-HT1B); experiment: SafetyScreen panel: 5-HT1B; format: binding; conditions: 10 μM
Protocol: as §1

[3] = system: calcium channel L-type (phenylalkylamine); experiment: SafetyScreen panel: calcium channel L-type; format: binding; conditions: 10 μM
Protocol: as §1

[4] = Single oral dose ACTH challenge test in rats; format: in vivo, rat; conditions: rat, in vivo, male rats, at minimum effective dose 3 mg/kg oral
Protocol: (§2) The pharmacodynamic (PD) effects of Compound 1 were examined in rat by evaluating suppression of the corticosterone (cortisol in humans) response induced by administration of ACTH.
(§3) The ability of a single oral dose of Compound 1 to suppress corticosterone over 2 hours in response to an ACTH challenge test was assessed in male and female rats. Acute, IV administration of 1 μg/kg ACTH(1-24) induced a robust rise in plasma corticosterone levels compared to baseline in male and female rats.

[5] = system: ACTH-stimulated corticosterone secretion; experiment: Single oral dose ACTH challenge test in rats; format: in vivo, rat; conditions: for suppression of corticosterone: 1 μg/kg IV ACTH(1-24), vs vehicle
Protocol: as §2, §3

[6] = system: ACTH-stimulated corticosterone; experiment: Single oral dose with repeated ACTH(1-24) challenges in rats; format: in vivo, rat; conditions: for suppression of ACTH-stimulated corticosterone: vs vehicle
Protocol: The ability of a single dose of Compound 1 to suppress corticosterone after repeated ACTH(1-24) (1 μg/kg) challenges was evaluated to determine the reproducibility of the ACTH-stimulated corticosterone response and the amount of time required to restore the corticosterone response to vehicle levels.
Compound 1 suppressed ACTH-stimulated corticosterone at 1 hour (44% and 88% with 3 and 30 mg/kg, respectively) and 4 hours (36% and 84% with 3 and 30 mg/kg, respectively) post-oral administration compared to vehicle treatment.

[7] = system: basal and ACTH-stimulated cortisol; experiment: Phase 1 SAD study, basal cortisol and ACTH-stimulation test; format: in vivo, human; conditions: for % suppression in cortisol AUC: high dose ACTH (250 mcg) challenge
Description: (§4) This Phase 1, first-in-human, double-blind, randomized, placebo-controlled study will evaluate the safety of Compound 1 in healthy volunteers as well as the relationship between exposure and pharmacodynamic (PD) parameters, including ACTH-stimulated and endogenous cortisol secretion measured in blood, saliva, and urine. Results will be used to inform endpoints and other parameters in future later studies in patients with Cushing's disease (CD) or other diseases of excess adrenocorticotropic hormone (ACTH), including Congenital Adrenal Hyperplasia (CAH) and Ectopic ACTH Syndrome (EAS).
SAD/Part 1: ascending single dose, randomized, placebo-controlled, double-blind; 5 planned and up to 8 total cohorts, n=64. In each cohort, 6 subjects will receive Compound 1, 2 subjects will receive the placebo. Doses will escalate from 10 mg in cohort 1 to no more than 250 mg.
ACTH-stimulation tests are conducted while fasting. For PD analyses, blood samples are collected for measurement of serum cortisol, A4, 17-OHP, aldosterone, and DHEA. A summary of the procedure is as follows: In the “high dose” test, each subject is administered an IV 250 μg dose (for subjects >37 lbs) of cosyntropin (ACTH(1-24)) at the start of each test; in the “low dose” test, 1 mcg is administered instead. At 2 hours after study drug dosing/Time 0 (±5 minutes), collect blood sample. Within 5 minutes, administer cosyntropin IV infusion over 2 minutes. Collect blood sample at Time 30 minutes (5 minutes). Collect blood sample at Time 60 minutes (5 minutes).
Starting on Day −1 until EOS (or ET), fasting pre-dose blood samples are collected <15 minutes prior to dosing (˜0800 hr) for measurement of serum cortisol, A4, 17-OHP, aldosterone, ACTH(1 39), renin, and DHEAS. On Days in which ACTH-stimulation tests are conducted, these tests are done approximately 2 hours post-study drug dosing. Prior to cosyntropin administration, at 2 hours (15 minutes) post-dose, blood samples are collected for measurement of cortisol, A4, 17-OHP, aldosterone, and DHEA. Cosyntropin is then administered to define time 0 of the ACTH-stimulation test. At 2.5 hours (15 minutes) post-dose/30 minutes post-cosyntropin, blood samples are collected for measurement of cortisol. At 3 hours (15 minutes) post-dose/60 minutes post-cosyntropin, blood samples are collected for measurement of cortisol, A4, 17-OHP, aldosterone, and DHEA.
Compound 1 was also evaluated in the context of an ACTH-Stimulation Test, with oral Compound 1 or placebo being administered prior to the intravenous (IV) administration of cosyntropin (ACTH(1-24)). In the absence of pharmacologic intervention, IV administration of ACTH leads to the secretion of cortisol; whereas the pharmacologic intervention can suppress secretion of […] cortisol levels.

[8] = Phase 1 MAD study, pharmacokinetics, 40 mg daily over 10 days; format: in vivo, human
Description: as §4
MAD/Part 2: multiple ascending dose, randomized, placebo-controlled, double-blind; 2 planned and up to 4 total cohorts (n=36). In each cohort, 6 subjects will receive Compound 1, 3 subjects will receive the placebo. The doses will not exceed the doses in the SAD.
Pharmacokinetic results for Day 1 and Day 10 from the MAD study using a 40 mg daily dose of Compound 1 over 10 days are shown in FIG. 12. Data shown are mean±SEM. […] The mean half-life was ˜30 hours.

T1 sequence (P41968 whole entry): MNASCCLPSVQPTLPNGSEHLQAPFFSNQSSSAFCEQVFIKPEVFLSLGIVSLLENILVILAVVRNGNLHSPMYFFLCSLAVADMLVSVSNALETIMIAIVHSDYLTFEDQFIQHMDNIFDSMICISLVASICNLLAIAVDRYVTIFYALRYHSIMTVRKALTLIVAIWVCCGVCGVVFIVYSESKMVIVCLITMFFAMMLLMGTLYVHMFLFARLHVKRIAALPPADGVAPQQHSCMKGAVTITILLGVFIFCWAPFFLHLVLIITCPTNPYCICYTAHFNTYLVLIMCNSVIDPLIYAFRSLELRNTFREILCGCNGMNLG

For `CCOc1ccccc1-c1ccc(N2CCN(C(=O)C3(C(F)(F)F)CCC3)C[C@H]2CC)c(C(=O)N[C@@H]2CN3CCC2CC3)n1` [Compound 1, 6-(2-ethoxyphenyl)-3-((R)-2-ethyl-4-(1-(trifluoromethyl)cyclobutane-1-carbonyl)piperazin-1-yl)-N—((S)-quinuclidin-3-yl)picolinamide], the IC50 (MC3R) was > 1000 nM, the “activity across the panel” value [1] was “little activity across the panel” and the inhibition/activity [2] was > 70%. The inhibition/activity [3] was > 70%, the Cmax [4] was 149 ng/mL and the AUC(0-t) ([4]; read-out: AUC up to the last measurable concentration (AUC0-t)) was 1400 ng·h/mL. The suppression of corticosterone ([5]; female rats, 1 mg/kg oral) was 51%, the suppression of corticosterone ([5]; female rats, 3 mg/kg oral) was 71% and the suppression of corticosterone ([5]; female rats, 10 mg/kg oral) was 88%. For the same compound, the “dose with statistically significant suppression of corticosterone” value ([5]; female rats, oral) was ≥ 1 mg/kg, the ACTH-stimulated corticosterone secretion ([5]; male and female rats, oral) was “dose-dependently suppressed” and the suppression of corticosterone ([5]; male rats, 3 mg/kg oral) was 62%. The suppression of corticosterone ([5]; male rats, 10 mg/kg oral) was 78%, the “dose with statistically significant suppression of corticosterone” value ([5]; male rats, oral) was ≥ 3 mg/kg and the minimum effective dose ([5]; male rats, oral, 1 μg/kg ACTH-stimulated acute assay) was 3 mg/kg. For the same compound, the ACTH-stimulated corticosterone ([6]; 24 and 48 hours after single oral 3 or 30 mg/kg) was “returned to normal, vehicle levels”, the “suppression of ACTH-stimulated corticosterone” value ([6]; 1 hour post-oral administration, 3 mg/kg) was 44% and the “suppression of ACTH-stimulated corticosterone” value ([6]; 1 hour post-oral administration, 30 mg/kg) was 88%. The “suppression of ACTH-stimulated corticosterone” value ([6]; 4 hours post-oral administration, 3 mg/kg) was 36%, the “suppression of ACTH-stimulated corticosterone” value ([6]; 4 hours post-oral administration, 30 mg/kg) was 84% and the “% suppression in cortisol AUC” value ([7]; 10 mg) was “about 9%”. For the same compound, the “% suppression in cortisol AUC” value ([7]; 20 mg) was “about 22%”, the “% suppression in cortisol AUC” value ([7]; 40 mg) was “about 36%” and the “acute reduction of basal cortisol” value ([7]; 80 mg, 2 hours after administration) was 56%. The “% suppression in cortisol AUC” value ([7]; 80 mg) was “about 41%”, the “reduction in cortisol levels” value ([7]; 80 mg, low dose ACTH (1 mcg) stimulation challenge) was 48% and the “accumulation with chronic dosing, higher than projected from SAD study results” value ([8]; 40 mg daily over 10 days) was “approximately 2.4 fold”. The “Day 1 PK profile and exposures” value ([8]; 40 mg, Day 1) was “comparable to the 40 mg single dose from the SAD study” and the half-life ([8]; human, in vivo, oral, 40 mg daily over 10 days) was ~30 h.
